How the values were obtained:
[1] = molecular target: T1, plant derived recombinant AChE (rAChE) (Homo sapiens, UniProt P22303); test: Inhibition of plant-derived recombinant AChE (Ellman assay); assay type: biochemical; details: for inhibition of plant derived rAChE: 1 mM acetylthiocholine
T1 construct: We expressed the engineered AChE-E4 form, encoded by exons 2-4 of the human gene; made in house; host or cells: transgenic tomato (Lycopersicum esculentum cv. Micro-Tom), cleared leaf extracts

[2] = molecular target: T2, human AChE derived from erythrocytes (Homo sapiens, UniProt P22303); test: Inhibition of AChE from human erythrocytes (Ellman assay); assay type: biochemical
T2 construct: a commercially available preparation of AChE from human erythrocytes; purchased; host or cells: human erythrocytes
T2 sequence (P22303 32-617 isoform P22303-2 limits assumed): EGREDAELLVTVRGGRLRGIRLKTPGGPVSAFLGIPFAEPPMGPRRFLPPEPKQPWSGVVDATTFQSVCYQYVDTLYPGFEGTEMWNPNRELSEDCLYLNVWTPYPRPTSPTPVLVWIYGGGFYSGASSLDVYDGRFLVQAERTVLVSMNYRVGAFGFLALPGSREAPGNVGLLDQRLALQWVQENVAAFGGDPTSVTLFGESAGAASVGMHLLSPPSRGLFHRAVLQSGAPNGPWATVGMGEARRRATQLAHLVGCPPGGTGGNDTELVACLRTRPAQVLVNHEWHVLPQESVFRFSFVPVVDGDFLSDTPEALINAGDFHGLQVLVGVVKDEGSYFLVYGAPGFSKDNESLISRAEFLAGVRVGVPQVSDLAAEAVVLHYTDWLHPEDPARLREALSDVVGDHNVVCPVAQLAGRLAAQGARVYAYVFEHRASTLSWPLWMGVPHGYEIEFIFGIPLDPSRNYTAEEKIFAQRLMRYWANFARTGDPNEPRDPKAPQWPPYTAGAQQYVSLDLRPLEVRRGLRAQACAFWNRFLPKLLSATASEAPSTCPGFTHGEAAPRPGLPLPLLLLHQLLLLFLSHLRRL

[3] = Km determination of plant-derived hAChE (Ellman assay, Lineweaver-Burk analysis); assay type: biochemical; details: acetylthiocholine 0.05-50 mM; four expressing lines
Method: Scaled-down microtiter plate Ellman assays were performed, according to standard methods, which are well known in the art. […] At the end of the 30 minute incubation period, 100 μl of 1 mM 5-5′-dithio-bis(2-nitrobenzoate) (Ellman's reagent) and 2 mM acetylthiocholine in assay buffer was added. Hydrolysis was monitored by measuring optical density at 405 nm at 5 minute intervals for 30 minutes, using a microtiter plate spectrophotometer, plotted against time, and initial rates were calculated from the slope of the linear portion of the graph. Net hydrolysis rates were calculated by subtracting the rates measured in the presence of BW284c15 from those obtained in its absence. To determine the Km, the concentration of the acetylthiocholine substrate in the Ellman's reagent was varied in the range of 0.05-50 mM.

[4] = Heat and storage stability of AChE activity in crude leaf extracts; assay type: physicochemical
Method: To evaluate the heat stability of the enzyme, plant extracts were incubated for 30 minutes at the indicated temperatures and then assayed as described above. Stability of the enzymatic activity was determined at 4 degrees C. and at 25 degrees C. by incubating plant extracts at the respective temperatures and assaying samples at the indicated time points.
The plant-derived hAChE in total soluble protein extracts retained 50% of its initial activity after incubation at 42 degrees for at least 30 minutes (FIG. 5A). Crude leaf extracts were incubated at the indicated temperatures for 30 minutes and then subjected to Ellman's AChE assay. […] The activity was very stable at 4 degrees C., with only 20% loss after 24 hours (FIG. 5B). Crude leaf extracts were incubated at 4 degrees C. or at 25 degrees C. for the indicated time periods and then assayed for AChE activity.

Molecule: CC(C)NP(=O)(NC(C)C)OP(=O)(NC(C)C)NC(C)C [Iso-OMPA, tetraisopropyl pyrophosphoramide]
- inhibition of plant-derived enzyme ([1]; at 10 mM): only partial inhibition
- effect on plant-derived enzyme ([1]; up to 100 μM): no effect
- inhibition of erythrocyte-derived enzyme ([2]; at 10 mM): only partial inhibition
- effect on erythrocyte-derived enzyme ([2]; up to 100 μM): no effect

Molecule: O=S(=O)(F)Cc1ccccc1 [PMSF, phehylmethylsulfonyl fluoride]
- inhibition of plant derived rAChE [1]: can inhibit

Molecule: CN(C)C(=O)Oc1cccc([N+](C)(C)C)c1 [neostigmine]
- inhibition of plant derived rAChE [1]: can inhibit

Molecule: CCOP(=O)(OCC)Oc1ccc([N+](=O)[O-])cc1 [paraoxon, diethyl p-nitrophenyl phosphate]
- susceptibility of plant-derived E4 enzyme relative to equivalent recombinant enzyme from transgenic mice [1]: somewhat less susceptible
- inhibition of plant derived rAChE [1]: can inhibit

B1: plant-derived hAChE (protein, UniProt P22303 32-614, looked up)
Acetylcholinesterase: EGREDAELLVTVRGGRLRGIRLKTPGGPVSAFLGIPFAEPPMGPRRFLPPEPKQPWSGVVDATTFQSVCYQYVDTLYPGFEGTEMWNPNRELSEDCLYLNVWTPYPRPTSPTPVLVWIYGGGFYSGASSLDVYDGRFLVQAERTVLVSMNYRVGAFGFLALPGSREAPGNVGLLDQRLALQWVQENVAAFGGDPTSVTLFGESAGAASVGMHLLSPPSRGLFHRAVLQSGAPNGPWATVGMGEARRRATQLAHLVGCPPGGTGGNDTELVACLRTRPAQVLVNHEWHVLPQESVFRFSFVPVVDGDFLSDTPEALINAGDFHGLQVLVGVVKDEGSYFLVYGAPGFSKDNESLISRAEFLAGVRVGVPQVSDLAAEAVVLHYTDWLHPEDPARLREALSDVVGDHNVVCPVAQLAGRLAAQGARVYAYVFEHRASTLSWPLWMGVPHGYEIEFIFGIPLDPSRNYTAEEKIFAQRLMRYWANFARTGDPNEPRDPKAPQWPPYTAGAQQYVSLDLRPLEVRRGLRAQACAFWNRFLPKLLSATDTLDEAERQWKAEFHRWSSYMVHWKNQFDHYSKQDRCSDL
modifications: plant-expressed
- Km [3]: 440 ± 100 µM
- loss of AChE activity ([4]; 4 degrees C., after 24 hours): 20%
- initial activity retained ([4]; 42 degrees, at least 30 minutes, total soluble protein extract): 50%
- residual AChE activity ([4]; room temperature (~25 degrees C.), after 25 hours): 20%

Source: patent US6770799B2, “Expression of recombinant human acetylcholinesterase in transgenic plants” (priority 2000, dated 2004)
